The values that follow come from article PMC8354230 (Journal of Virology, 2021).

The term EC50 denotes the concentration that produces a half-maximal response. A high value points to lower potency in that assay.

The structures appear in SMILES notation. Where two headings read alike, the source gives them in different places.

Series [1] relates to SARS-CoV-2 S protein-mediated cell-cell fusion. Nature of the series: microbe, parasite or virus in culture. It is filed as cell-based.
Series [2] relates to 293FT/ACE2/TMPRSS2/DSP1-7 cells. The note with it: 2 days; for cell viability: at concentrations above 40 µM; for concentration above which cytotoxicity was exhibited / CC50: WST-8; for CC50: 293FT/ACE2/TMPRSS2/DSP1-7 cells. In general terms: Tetrazolium dyes change colour on reduction, which living cells bring about.
The next series is described as follows: in vitro. Particulars: human.
The subject of series [3] is HEK293FT cells expressing DSP1-7 and DSP8-11. It is filed as cell-based. The note with it: 2 days treatment.
The test system of series [4] is 293FT/ACE2/TMPRSS2/DSP1-7 cells. The series is described as follows: Quantification of sphingolipids by LC-MS/MS in 293FT/ACE2/TMPRSS2/DSP1-7 cells. Format: cell-based. The note with it: for reduction in total sphingolipid levels: 40 µM, vs DMSO.
Series [5] relates to VeroE6^TMPRSS2 cells. Nature of the series: WST-8 cytotoxicity assay in VeroE6^TMPRSS2 cells. It is filed as cell-based. Particulars: 3 days; for concentration above which cytotoxicity was exhibited: WST-8.
The test system of series [6] is SARS-CoV-2 NCGM-05-2N strain. Nature of the series: microbe, parasite or virus in culture. Format: cell-based.
For series [7], the system named is VeroE6^TMPRSS2 cells. Nature of the series: Quantification of sphingolipids by LC-MS/MS in VeroE6^TMPRSS2 cells. Format: cell-based. The note with it: 3 days.
In series [8] the test system is 293FT/ACE2/TMPRSS2/DSP1-7 cells. The series is described as follows: Cellular membrane fluidity with lipophilic pyrene probe. It is filed as cell-based. Particulars: for decrease in membrane fluidity: 2 days, compared with DMSO.
Series [9] concerns ACE2. Nature of the series: Cell surface expression of ACE2 by flow cytometry. It is filed as cell-based. Particulars: 293FT/ACE2/TMPRSS2/DSP1-7 cells, 5 µM, compared with DMSO or 10 µM GT11.
Series [10] concerns ACE2. It is filed as cell-based. Particulars: 5 µM 4-HPR vs DMSO.
For series [11] the following is noted: cited from earlier work.
Setting [12] is: Severe acute respiratory syndrome coronavirus 2, 48 h.

For the molecule `O[C@H]1[C@H](O)[C@@H](O)[C@@H]2O[C@@H]2[C@@H]1O` (racemic) [CBE, conduritol B epoxide], the antimembrane fusion activity entry in series [1] is “little or no antimembrane fusion activity”. The molecule further yielded an EC50 in series [1] (setting [12]) of more than 40 µM. Also, in [2], the cell viability result is listed as “unaffected”. Moreover, the CC50 in the series “in vitro” is more than 40 µM.

Take `CC1=C(/C=C/C(C)=C/C=C/C(C)=C/C(=O)Nc2ccc(O)cc2)C(C)(C)CCC1` [4-HPR, N-(4-Hydroxyphenyl) retinamide]: the “inhibition of DSP activity (cell-cell fusion)” value in series [1] is on record as “more than 50%”. Also, the EC50 is 4.1 µM in series [1] (setting [12]) and 4.4 µM in series [6] (Severe acute respiratory syndrome coronavirus 2, VeroE6/TMPRSS2). In [3], the “luciferase activity in cells harboring preformed DSP1-7/DSP8-11 reporter complex” value is given as “not affected”. For the same molecule, the “ratio of saturated sphinganine-based lipids to total sphingolipids” value in series [4] (2.5 µM 4-HPR, 2 days) was approximately 10%; in series [4] (5 µM 4-HPR, 2 days), approximately 20%; in the series with VeroE6^TMPRSS2 cells [7] (1.3 µM), 12%; in the series with VeroE6^TMPRSS2 cells [7] (2.5 µM) it was 17%; in the series with VeroE6^TMPRSS2 cells [7] (5 µM), 25%. Besides, the “concentration above which cytotoxicity was exhibited” value (in the series on VeroE6^TMPRSS2 cells [5]; in series [2]) was “above 10 µM” in each case. In addition, in series [6], the antiviral activity entry was “no antiviral activity”. The “decrease in membrane fluidity” value in series [8] (2.5 µM) was approximately 20%; in series [8] (5 µM), “about 50%”. Further, the “ACE2 expression levels on cell surface” value in the series on ACE2 [9] is listed as “No significant differences”. For the same molecule, the “ACE2 localization in the membrane microdomain” value with ACE2 [10] is given as “no dramatic difference”. In addition, the “toxicity profile in clinical trials and long-term treatments” value in [11] was “low-toxicity profile”. Moreover, in series [11] (oral powder, 1,500 mg/m^2 per day, patients with relapsed/refractory neuroblastoma), the “day 6 mean peak plasma concentration” value is listed as 21 µM. In addition, in “in vitro”, the CC50 is 11.5 µM.

For the molecule `CN(C)CCC=C1c2ccccc2CCc2ccccc21` [Amitriptyline], the antimembrane fusion activity entry in series [1] was “little or no antimembrane fusion activity”. For the same molecule, the EC50 in [1] (setting [12]) is more than 40 µM. Besides, the cell viability result in [2] is “unaffected”. In addition, the CC50 in the series “in vitro” was more than 40 µM.

`CCCCCCCCCCCCC/C=C/[C@@H](O)[C@H](CO)NC(=O)CCCCCCC` [C8-Cer, N-Octanoyl-d-erythro-sphingosine]: the cell-cell fusion efficiencies entry in series [1] is listed as “no significant differences”. For the same molecule, the “decrease in ratio of saturated sphinganine-based lipids to total sphingolipids” value in [4] (10 µM C8-Cer with 5 µM 4-HPR, compared to 4-HPR treated cells) is recorded as “approximately 74%”.

Take `COc1ccc(/C=C/C(=O)c2c(-c3ccccc3)c3ccccc3[nH]c2=O)cc1` [Ceranib-2]: in series [1], the EC50 is more than 1.3 µM and the antimembrane fusion activity entry is reported as “little or no antimembrane fusion activity”. In addition, in series [2], the CC50 is 26.9 µM and the “concentration above which cytotoxicity was exhibited” value is given as “above 2.5 µM”.

Turning to `CCCCCCCCc1ccc(CCC(N)(CO)CO)cc1` [FTY720], the antimembrane fusion activity entry in [1] is recorded as “little or no antimembrane fusion activity”. In addition, in series [1] (setting [12]), the EC50 is more than 5 µM. Besides, the “concentration above which cytotoxicity was exhibited” value in [2] was “above 10 µM”. In “in vitro”, this molecule returned a CC50 of 12.5 µM.

Turning to `CCCC[C@@H](C)[C@@H](OC(=O)C[C@@H](CC(=O)O)C(=O)O)[C@H](C[C@@H](C)C[C@H](O)CCCC[C@@H](O)C[C@H](O)[C@H](C)N)OC(=O)C[C@@H](CC(=O)O)C(=O)O` [Fumonisin B1], in [1], the EC50 is more than 40 µM and the antimembrane fusion activity result is given as “little or no antimembrane fusion activity”. Also, the “reduction in total sphingolipid levels” value in [4] (2 days) is listed as approximately 79%. Moreover, in series [2], the CC50 is more than 40 µM and the cell viability entry is given as “unaffected”.

As to `CCCCCCCCCCCCCC1=C([C@H](O)[C@@H](CO)NC(=O)CCCCCCC)C1` [GT11], in series [1], the EC50 is more than 10 µM and the antimembrane fusion activity entry was “little or no antimembrane fusion activity”. The “ratio of saturated sphinganine-based lipids to total sphingolipids” value in series [4] (10 µM GT11, 2 days) was approximately 10%. For the same molecule, in the series with VeroE6^TMPRSS2 cells [5], the “concentration above which cytotoxicity was exhibited” value was “above 10 µM”. In addition, the antiviral activity entry in series [6] was “no antiviral activity”. In addition, the membrane fluidity result in series [8] (10 µM GT11 compared with 2.5 µM 4-HPR) is “not significantly different”. In addition, in series [2], the CC50 was found to be 20.3 µM and the “concentration above which cytotoxicity was exhibited” value is given as “above 20 µM”.

In the case of `O=C(/C=C/c1ccc(/C=C/C(=O)Nc2ccc(C3=NCCN3)cc2)cc1)Nc1ccc(C2=NCCN2)cc1` [GW4869], in [1], the EC50 is more than 10 µM and the antimembrane fusion activity entry is “little or no antimembrane fusion activity”. For the same molecule, in series [2], the CC50 is more than 40 µM and the “concentration above which cytotoxicity was exhibited” value is “above 20 µM”.

For the molecule `CCCCCCCCCCCC(=O)N[C@@H](CO)C[C@H](O)c1ccccc1` [HPA12], in series [1], the EC50 is more than 40 µM and the antimembrane fusion activity entry is reported as “little or no antimembrane fusion activity”. Further, in series [2], the CC50 is more than 40 µM and the cell viability result is “unaffected”.

With `CCCCCCC(=O)CCCCCC/C=C/C[C@@H](O)[C@H](O)[C@@](N)(CO)C(=O)O` [Myriocin], in [1], the antimembrane fusion activity entry is listed as “little or no antimembrane fusion activity”. Also, the EC50 in series [1] (setting [12]) is more than 40 µM. Besides, the “reduction in total sphingolipid levels” value in series [4] (2 days) is listed as “approximately 65%”; in the series on VeroE6^TMPRSS2 cells [7] (vs DMSO), “approximately 50%”. Moreover, the “effect on cell viability” value with VeroE6^TMPRSS2 cells [5] (at a concentration above 20 µM) is “no effect”. Moreover, the antiviral activity result in [6] was “did not exhibit antiviral activity”. Moreover, the cell viability entry in [2] is reported as “unaffected”. In the series “in vitro”, this molecule returned a CC50 of more than 40 µM.

Turning to `Oc1ccc(Nc2nc(-c3ccc(Cl)cc3)cs2)cc1` [SKI-II], in series [1], the EC50 is more than 10 µM and the antimembrane fusion activity result is reported as “little or no antimembrane fusion activity”. In series [2], the CC50 was more than 40 µM and the “concentration above which cytotoxicity was exhibited” value is recorded as “above 20 µM”.

`CCCCCCCCCCCCCCCC(=O)NC(CN1CCOCC1)C(O)c1ccccc1` (stereo not drawn) [erythro-PPMP] had a concentration giving a half-maximal response (EC50) in [1] of 9.1 µM. Moreover, in series [4] (10 µM, compared to DMSO-treated cells), the “levels of GlcCer” value is “decreased”. The molecule also displayed a CC50 in series [2] of 35.8 µM.

For `CCCCCCCCCCCCCCCC(=O)NC(CN1CCOCC1)C(O)c1ccccc1` (stereo not drawn) [threo-PPMP, 1-phenyl-2-palmitoylamino-3-morpholino-1-propanol], the “inhibition of DSP activity (cell-cell fusion)” value in series [1] is “more than 50%”. Moreover, in series [1] (setting [12]), the EC50 is 8.7 µM. The “luciferase activity in cells harboring preformed DSP1-7/DSP8-11 reporter complex” value in series [3] was “not affected”. For the same molecule, the “concentration above which cytotoxicity was exhibited” value (in the series with VeroE6^TMPRSS2 cells [5]; in series [2]) was “above 20 µM” each time. Further, the antiviral activity entry in [6] is “did not exhibit antiviral activity”. In addition, the “reduction in total GlcCer levels” value in the series on VeroE6^TMPRSS2 cells [7] (compared to DMSO) is “approximately 60%”. In “in vitro”, this molecule registered a CC50 of 25.6 µM.
